Data on one compound can be found in ChEMBL document CHEMBL1150070, “A novel cytotoxic macrolide, superstolide B, related to superstolide A, from the New Caledonian marine sponge Neosiphonia superstes” (J Nat Prod, 1994).

Common to all, as to type: functional, cell-based
A short description of assay [1]: Cytotoxicity against human NSCLC-N6-L16 cells.
The subject of a further assay is KB. Briefly: Cytotoxicity against human KB cells.
The subject of another assay is P388. The assay is described as follows: Cytotoxicity against mouse P388 cells.

Values after ≈ are worked out from the molar mass of the structure shown.

Usually IC50 stands for the midpoint of a concentration-inhibition curve. In the case of `CO[C@@H]1C[C@H](OC(N)=O)[C@@H]2C=C[C@@H]3/C=C(C)/C=C/[C@@H](C)[C@H](/C(C)=C/[C@@H](C)NC(C)=O)OC(=O)/C=C/C=C(C)\C=C\[C@]3(C)[C@@H]2C1` [SUPERSTOLIDE B], the figures for the IC50 (in assay [1]; in the assay on KB; with P388) were 39 ng/mL (≈ 64.3 nM), 5 ng/mL (≈ 8.24 nM) and 3 ng/mL (≈ 4.94 nM), respectively.
